{"source": "patent US6376175B1", "about": "“Methods of discovering chemicals capable of functioning as gene expression modulators” (OSI Pharmaceuticals, Inc., priority 1989, dated 2002)", "key": {"human G-CSF promoter": {"test_system": "human G-CSF promoter", "format": "cell-based", "settings": "7-hour incubation, serum-free media", "source_text": "A human bladder carcinoma cell line (U5637, ATCC number HTB 9) was used for transfection of plasmids containing the human Granulocyte-Colony Stimulating Factor (G-CSF) promoter (see below) and was maintained in RPMI medium supplemented with 10% FCS. For HTP screening, transfected 5637 clones were transferred to a serum free defined medium identical to that used for the NIH/3T3 clones.\nThe sequences of OL-1, OL-2 and OL-5 recognize the G-CSF promoter region, OL-4 recognizes the first intron/exon junction and OL-3 recognizes sequences within the second exon (32). One of the clones isolated from the leukocyte library using these oligonucleotide probes contains a 3.5 kb SalI-BamHI fragment of G-CSF genomic sequence consisting of 3.3 kb of promoter sequence and two hundred base pairs of the coding region. This fragment was inserted into the vector pGEM-7-Zf (Promega, Madison, Wis.) which had previously been digested with SalI/BamHI, resulting in the vector pJM710 (FIG. 7). pJM710 was then digested with PstI, and the resulting 1.6 kb fragment containing G-CSF upstream sequences and the first 15 bases of the G-CSF leader sequence was inserted into the PstI site of pGEM5-Luci (FIG. 8) to generate pG-Lucl (FIG. 9). This construct was then used for transfection of 5637 human bladder carcinoma cells as described below in section E3. pGEM5-Luci (FIG. 8) had previously been constructed by inserting the […]/SalI fragment from pSVLuci (FIG. 2) containing the luciferase coding sequence and the SV40 late polyadenylation signal into pGEM 5-Zf (Promega, Madison Wis.) digested with XhoI/SalI.\npG-LUC1 (FIG. 9) and pRSVNeo were co-transfected into 5637 human bladder carcinoma cells as described above. Selection of G418 resistant clones was as described above except for using a concentration of 0.1 mg/ml G418. Analysis of cell clones was performed as above except that a known inducer of G-CSF expression (1-5 µg/ml lipopolysaccharide (LPS), E. coli serotype 055:b5, Difco, Detroit, Mich. or Sigma, St. Louis, Mo.) was used in place of dexamethasone.\nCell plating: Dynatech Microlite 96 well plates were custom pretreated for cell attachment by Dynatech Laboratories, Inc. (Chantilly, Va.). Alternatively, the 96 well plates were treated with 50 µl per well of human fibronectin (hFN, 15 µg/ml in PBS, Collaborative Research, Bedford, Mass.) overnight at 37 C. hFN-treated plates were washed with PBS using an Ultrawash 2 Microplate Washer (Dynatech Labs), to remove excess hFN prior to cell plating. M10, 532, and G21 cells maintained in their respective serum media (with 0.2 mg/ml G418) were washed with PBS, harvested by trypsinization, and counted using a hemocytometer and the Trypan Blue exclusion method according to protocols provided by Sigma, St. Louis, Mo. Chemical Company. Cells were then diluted into serum free defined media (with 0.2 mg/ml G418), and 0.2 ml of cell suspension per well was plated onto Dynatech treated plates (532 and G21) or hFN-treated plates (M10) using a Cetus Pro/Pette (Cetus, Emeryville Calif.). Plates were incubated overnight at 37 C in a humidified 5% CO2 atmosphere.\nAddition of Chemicals to Cells: Chemicals from the Oncogene Science file were dissolved in DMSO at concentrations of 3-30 mg/ml. A liquid handling laboratory work station (RSP 5052, Tecan U.S. Chapel Hill, N.C.) was used to dilute the chemicals (three dilutions; 5 fold, 110 fold, and 726 fold). 10 11 of each dilution were added to each of quadruplicate samples of cells contained in the wells of 96-well Dyantech Microlite Plates. […]"}, "GM-CSF promoter": {"test_system": "GM-CSF promoter", "assay": "GM-CSF promoter-luciferase induction by known inducers, clones GM 1073, GM 1088, GM 1105", "format": "cell-based, human", "settings": "for luciferase expression induction, clone 1088: GM-CSF reporter clone GM 1088; for luciferase expression induction, clone 1105: GM-CSF reporter clone GM 1105", "procedure": "All routine subcloning procedures were performed as described by Maniatis et al. (1982), (28) unless otherwise noted. The about 0.7 kb HindIII/RsaI fragment of the GM-CSF clone (FIG. 20) was inserted into pUC 18 previously digested with HindIII/HincII. The about 0.7 kb HindIII/SmaI fragment was then isolated from the resulting vector and cloned into pUV 100 digested previously with HindIII/SnaBI, thereby generating pGMLUCI (FIG. 22.) In order to correctly fuse the GM-CSF ATG with the coding region of luciferase, four oligonucleotides (FIG. 21) were synthesized, phosphorylated, annealed, ligated, and inserted into pUC19 previously digested with Eco RI/XbaI, generating pGM-1 (FIG. 22). pGM-1 was then sequences (Sequenase Kit, US Biochemicals, Cleveland, Ohio) using the M13 forward (U.S. Biochem.) and reverse primers (Pharmacia, Piscataway, N.J.) to ensure that there were no mutations in the synthesized oligonucleotides. The about 1.8 kb BstEII/ScaI fragment from pGM-1 was then isolated and ligated to about 1.5 kb BstEII/ScaI fragment from pGMLUCI to generate pGM-2 (FIG. 22). pGM-2 was then digested with Hind III/XbaI and about 0.7 kb fragment was cloned into pUV 102 and pUV 103 previously digested with HindIII/XbaI. This generated pGMLS102 and pGMLS103 (FIG. 22), which contain 663 bp of GM-CSF sequence 5′ of the ATG fused directly to the second (correct) ATG of luciferase and the rest of the luciferase coding region. An additional about 1.4 kb of upstream sequences were cloned into this construct by isolating the about 1.4 kb SalI/HindIII fragment from the GM-CSF clone (FIG. 20), blunting the SalI end by filling in with Klenow polymerase, and inserting the fragment into pGMLS102 and pGMSL103 previously digested with HindIII/SnaBI. This step generated pGMLL102 and PGMLL103, respectively (FIG. 23). Finally, the pTKNEO2 and PTKNEO3 about 1.8 kb SfiI fragments were cloned directly into the SfiI site of pGMLL103 to generated pGMLL103 NEO2 and pGMLL103 NEO3.\n6 clones generated by electroporation with pGMLL103 NEO3 (FIG. 23; Materials and Methods, section D.2) were subjected to further analysis as described above: GM 1073 (10 ug; circular); GM 1081, 1088 and 1090 (5 ug; linear); and GM 1098 and 1105 (10 ug; linear).\nPromoter induction experiments were also conducted with the GM-CSF reporter cell lines GM 1073, GM 1088 and GM 1105, which were all shown to contain correctly inserted constructs (see above). […] Luciferase expression of clones 1088 and 1105 was induced by PMA 2.8 fold and 2 fold, respectively, while TNF-alpha induced both clones 2 fold."}}, "note": "Read-outs that look alike come from different tables or passages of the source."}
{"compound": "TNF-alpha", "values": [{"measurement": "increase of luciferase expression directed by the G-CSF promoter, G 21 cells", "setting": "human G-CSF promoter; absence of EGF", "value": 2.1, "unit": "fold"}, {"measurement": "increase of luciferase expression directed by the G-CSF promoter, G 21 cells", "setting": "human G-CSF promoter; presence of EGF", "value": 2.8, "unit": "fold"}, {"measurement": "luciferase expression induction, clone 1088", "setting": "GM-CSF promoter", "value": 2, "unit": "fold"}, {"measurement": "luciferase expression induction, clone 1105", "setting": "GM-CSF promoter", "value": 2, "unit": "fold"}]}
{"compound": "CCCCCCCCCCCCCC(=O)O[C@@H]1[C@@H](C)[C@@]2(O)[C@@H](C=C(CO)C[C@]3(O)C(=O)C(C)=C[C@@H]23)[C@@H]2C(C)(C)[C@]12OC(C)=O", "note": "[PMA, phorbo-myristate-acetate, reference compound]", "values": [{"measurement": "increase of luciferase expression directed by the G-CSF promoter, G 21 cells", "setting": "human G-CSF promoter; absence of EGF", "value": 34.6, "unit": "fold"}, {"measurement": "increase of luciferase expression directed by the G-CSF promoter, G 21 cells", "setting": "human G-CSF promoter; presence of EGF", "value": 24.6, "unit": "fold"}, {"measurement": "GM-CSF promoter induction, GM 1073 cells", "setting": "GM-CSF promoter; 10.5 hours, 20 ng/ml PMA, serum-containing media", "value": 3.4, "unit": "fold"}, {"measurement": "luciferase expression induction, clone 1088", "setting": "GM-CSF promoter", "value": 2.8, "unit": "fold"}, {"measurement": "luciferase expression induction, clone 1105", "setting": "GM-CSF promoter", "value": 2, "unit": "fold"}, {"measurement": "GM-CSF promoter induction, GM 1073 cells", "setting": "GM-CSF promoter; PMA, serum-free media", "value": 7.5, "unit": "fold"}]}
